In US20260355199A1, “COMPOSITIONS AND METHODS FOR TREATING OR PREVENTING NONALCOHOLIC STEATOHEPATITIS (NASH), ANOREXIA, DEPRESSION, ENDOMETRIOSIS, AND OTHER DISEASES OR DISORDERS” (priority 2022, published 2026):
“Also recorded” adds a separate entry of the source.

Assays:
[1] = tested on: AGRP, NPY and SLC32A1; test: AGRP, NPY and SLC32A1 mRNA in SH-SY5Y cells; type: cell-based, human; details: 10 μM, 48 h
Excerpt: Mouse GT1-7 hypothalamic neuronal cell line (Sigma-Aldrich, SCC116) and human SH-SY5Y neuroblastoma cell line (Sigma Aldrich, 94030304) were purchased and cultured according to the manufacturers' instructions. Purified Ad-TET3 adenovirus (Ad-FLAG.h-TET3, ADV-225322, Vector Biolabs) expressing human TET3 from a CMV promoter and Ad-GFP control adenovirus (1060, Vector Biolabs) were purchased.
For Bobcat339 treatment (FIG. 15A and FIG. 15B), GT1-7 cells grown in 24-well plates at 2×10^5 cells/well were incubated with vehicle or Bobcat339 at a final concentration of 10 μM for 6 h, followed by RNA and protein extractions. […] Protein and RNA were isolated 48 h later and analyzed.
Total RNAs were extracted from neuronal cells or homogenized hypothalamic arcuate nucleus tissue samples using PureLink RNA Mini Kit (Ambion, 12183025). cDNA was synthesized using PrimeScript RT Reagent Kit in a 20 μl reaction containing 0.5-1 μg of total RNA. Real-time quantitative PCR was performed in a 15 μl reaction containing 0.5-1 μl of cDNA using SsoAdvanced Universal SYBR Green Supermix in a Bio-Rad iCycler. […]

[2] = Liver toxicity after three weeks of once-a-week Bobcat339; type: in vivo, mouse
Protocol: For corticosterone, blood samples were obtained via retroorbital bleeding between 19:00 and 20:00. For alanine transaminase, aspartate transaminase and bilirubin, blood samples were collected by cardiac puncture of terminally anesthetized animals. All blood samples were collected in EDTA tubes (Microtainer with K2EDTA, BD, 365974). The tubes were centrifuged at 2,000×g at 4 °C for 20 min, and plasma was collected and stored at −80 °C until use. Plasma corticosterone levels were measured using Corticosterone ELISA kit (Enzo, ADI-900-097) according to the manufacturer's instructions. Kits used to measure alanine transaminase (EALT-100) and aspartate transaminase (EASTR-100) were purchased from Bioassay Systems. The bilirubin assay kit (MAK126) was purchased from Sigma Aldrich.

[3] = tested on: RAW 264.7 cells; test: TUNEL assay in RAW 264.7 cells; type: cell-based, mouse; details: RAW 264.7, 10 μM, 48 h
Protocol: For TET3 expression restoration experiments, cells seeded in 24-well plates were infected with Ad-GFP or Ad-TET3 at 4000 gc/cell. Following 16 h of infection, vehicle or Bobcat339 were added at a final concentration of 10 μM. Protein and RNA were isolated 48 hours later and analyzed.
These were performed using the In Situ Cell Death Detection Kit (Sigma Aldrich, 12156792910). Briefly, cells were fixed with 4% paraformaldehyde in PBS for 1 h at RT and rinsed with PBS, followed by permeabilization with 0.1% Triton X-100 in 0.1% sodium citrate for 2 min on ice. TUNEL reaction mixture was added and incubation was carried out at 37 °C for 60 min. DAPI was added to counter-stain the cells for 1 min. The slides were coverslipped and scoped using a Keyence BZ-X700 fluorescence microscope.

[4] = tested on: TET2; test: TET2 protein in human MDMs; type: cell-based; details: 24 h
Protocol: Bobcat339 Treatment of Cultured Cells Bobcat339 powder (Sigma-Aldrich, SML2611) was freshly dissolved in DMSO at a concentration of 5 mM and filtered through a 0.22 micron. Cells grown at a density of 80-90% were incubated in growth media with vehicle (DMSO) or Bobcat339 at a final concentration of 10 μM for 24 h, followed by RNA and protein extraction.
For cultured MDMs, cells were primed with CM-Endo or TGF-β1 (PeproTech, 100-21) for 36-48 h (to increase TET3 expression) before Bobcat339 treatment.
Cells were homogenized in situ using a pipette tip in 2×SDS-sample buffer with 10% β-mercaptoethanol at RT followed by heating at 100 °C for 5 min with occasional vortexing. The samples were loaded onto a 4-15% gradient SDS gel (Bio-rad, 456-8086) (10 μL/well) and transferred to nitrocellulose membranes, followed by Western blot analysis. The antibodies used were anti-TET3 (diluted at 1:1000, GeneTex, GTX121453 for human; diluted at 1:1000, Active Motif, 61395 for mouse), anti-TET2 (diluted at 1:1000, Proteintech, 21207-1-AP for human/mouse), anti-TGF-β1 (diluted at 1:1000, Abcam, ab215715 for human), anti-Lin28A (diluted at 1:1000, Cell Signaling, 3978S), and HRP-conjugated anti-GAPDH (dilution 1:5000; Proteintech, HRP-60004). The secondary antibody was HRP-linked Anti-rabbit IgG (dilution 1:10,000; Rockland, 611-1322).

[5] = Energy expenditure and feeding of mice given Bobcat339; type: in vivo, mouse

With `Nc1nc(=O)n(-c2cccc(-c3ccccc3)c2)cc1Cl` [Bobcat339, 4-Amino-1-[1,1′-biphenyl]-3-yl-5-chloro-2(1H)-pyrimidinone] the “AGRP, NPY and SLC32A1 mRNA levels” value [1] was “significant increases in Agrp/NPY mRNAs”, the tolerability ([2]; 3-weeks of once-a-week i.p. injection) was “well tolerated” and the liver toxicity ([2]; three weeks of once-a-week i.p. Bobcat339) was “no evidence of liver toxicity; also recorded: no liver toxicity has been detected”. For the same compound, the “apoptosis (TUNEL)” value [3] was “induced apoptosis; also recorded: a significant increase in apoptotic cell death”, the “apoptosis (TUNEL)” value ([3]; with Ad-TET3) was “reversed by overexpression of TET3; also recorded: not seen when TET3 was overexpressed” and the TET2 protein level ([4]; 10 μM) was “not affected; also recorded: not TET2”. The TET2 protein level ([4]; 10 mM (so in the source)) was “not significantly affected”, the feeding ([5]; drinking water or i.p.) was “induced hyperphagia” and the liver toxicity ([5]; drinking water or i.p.) was “without showing evidence of liver toxicity”. The resting energy expenditure ([5]; drinking water or i.p.) was “decreases resting energy expenditure” and the “appetite stimulation by route” value ([5]; oral and intraperitoneal) was “able to stimulate appetite via multiple routes of administration”.
